# Results as given in patent US20240025905A1, “SALTS OF DIHYDROPYRIMIDINE DERIVATIVES, COMPLEXES AND USES THEREOF IN MEDICINE” (SUNSHINE LAKE PHARMA CO., LTD., priority 2020, published 2024).
# What was measured:
# [1] = Stability test (high temperature, high humidity and light tests); type: physicochemical
# Protocol: High temperature test: An appropriate amount of the test product was added into a flat weighing bottle and spread into a thin layer with thickness ≤5 mm. The bottle was placed at 60° C. or 40° C. for 10 days. Samples were taken at the 5th and 10th days to check the appearance, related substances and purity.
# High humidity test: An appropriate amount of the test product was added into a flat weighing bottle and spread into a thin layer with thickness 5 mm. The bottle was placed at 25° C. and a relative humidity of 90%±5% for 10 days. Samples were taken at the 5th and 10th days to check the appearance, related substances and purity. At the same time, the weight of the test product before and after the test were accurately weighed to investigate the moisture absorption and deliquescence performance of the test product. Light test: An appropriate amount of the test product was added into a flat weighing bottle and spread into a thin layer with thickness ≤5 mm. The bottle was opened and placed in a light box (with UV) at the illuminance 4500±500 lx, UV light≥0.7 w/m^2 for 10 days. Samples were taken at the 5th and 10th days to check the appearance, related substances and purity.
# [2] = Pharmacokinetic evaluation of experimental animals after oral administration; type: in vivo, Beagle dogs; settings: dog
# Protocol: Blood samples were taken at 0.25, 0.5, 1, 2, 4, 6, 8 and 24 hours from forelimb vein after the administration, and collected in anticoagulation tube with EDTA-K2. After liquid-liquid extraction, the blood samples were quantitatively analyzed on a triple quadrupole tandem mass spectrometer using multiple reactive ion monitoring (MRM). Pharmacokinetic parameters (AUC0-t and Cmax) were calculated using a noncompartmental method by WinNonLin 6.3 software.
# HBV = settings: PCT application WO2019076310A1; cited from earlier work
smiles,measurement,setting,value
"COC(=O)C1=C(CN2CCN3C(=O)N(c4ccc(CCC(=O)O)cc4F)C[C@@H]3C2)NC(c2nccs2)=N[C@H]1c1ccc(F)cc1Cl [Compound having Formula (I), 3-(4-((S)-7-(((R)-6-(2-chloro-4-fluorophenyl)-5-(methoxycarbonyl)-2-(thiazol-2-yl)-3,6-dihydropyrimidin-4-yl)methyl)-3-oxohexahydroimidazo[1,5-a]pyrazine-2(3H)-yl)-3-fluorophenyl)propionic acid]",Purity (%),[1]; 0 days,98.61%
same,Purity (%),"[1]; High humidity (90% RH), 25° C., 5 days",98.66%
same,Purity (%),"[1]; High humidity (90% RH), 25° C., 10 days",98.75%
same,Purity (%),"[1]; High temperature (60° C.), 5 days",95.40%
same,Purity (%),"[1]; High temperature (60° C.), 10 days",94.07%
same,Purity (%),"[1]; Light (4500±500 lx, UV light≥0.7 w/m^2), 5 days",98.66%
same,Purity (%),"[1]; Light (4500±500 lx, UV light≥0.7 w/m^2), 10 days",98.20%
same,stability under high temperature (in words),[1]; high temperature (such as 60° C.),unstable
same,AUC0-t,"[2]; blood, beagle dogs, oral via capsules, 10 mg/kg, read-out: AUC0-t",6340 ng·h/mL
same,Cmax,"[2]; blood, beagle dogs, oral via capsules, 10 mg/kg, read-out: Cmax",3720 ng/mL
same,absorption in the body / in animals (in words),[2]; in vivo,unsatisfactory
same,HBV inhibitory activity (in words),HBV,good HBV inhibitory activity
